Marks after values point to notes of the source that are not given here.
Assays:
Mäuse = assay: Light/dark box test ("Hell-Dunkel-Box"), frequency of compartment changes; format: in vivo; settings: for Anzahl der Feldwechsel im Vergleich zur Vehikel-Kontrolle / Wechselhäufigkeit in der "Hell-Dunkel-Box": single dose; for Anzahl der Feldwechsel im Vergleich zur Vehikel-Kontrolle: tested after 60 min, observed 3 min; for Erkundungsverhalten ("exploratory behavior"): oral application in mice; for Erkundungsverhalten ("exploratory behavior") / Wechselhäufigkeit in der "Hell-Dunkel-Box": result in words; for Wechselhäufigkeit in der "Hell-Dunkel-Box": oral
Excerpt: Die aktivitätssteigernde Wirkung der Isorhamnetintriglycoside 2, 3 und 4 wurde an Versuchstieren im sogenannten "Hell-Dunkel-Box" System getestet.
Das Prinzip des verwendeten Testsystems beruht darauf, dass Mäuse einem Verhaltensparadigma ausgesetzt werden, das zwei gegensätzliche Verhaltensmuster aktiviert. Die Box besteht aus zwei Kompartimenten von denen ein kleinerer dunkler Teil von einem hellen und größeren Teil durch eine Wand getrennt wird. In der Mitte der Wand befindet sich eine kleine Öffnung, die es dem Versuchstier ermöglicht zwischen den beiden Kompartimenten zu wechseln. Der Versuch beginnt mit dem Einsetzen der Maus in das helle Feld. Das angeborene Dunkelpräferenzverhalten führt dazu, dass die Tiere nach einer kurzen Latenzzeit in das dunkle -sichere Kompartiment wechseln. Nach kurzer Zeit führt aber das ebenso stark ausgeprägte Neugierverhalten (Erkundungsverhalten) dazu, dass die Mäuse wieder in das helle Kompartiment wechseln. Somit stehen zwei angeborene Verhaltensweisen, nämlich die Dunkelpräferenz (Vermutlich als Schutz vor Beutegreifern) und das Erkundungsverhalten (wichtig für Nahrungssuche, Partnersuche) im Konflikt, die für eine Dauer von 3 Minuten aufgezeichnet werden. Arzneimittel, die beruhigende pharmakologische Effekte haben, führen zu einer Verminderung der Wechselhäufigkeit zwischen den Kompartimenten, während Arzneimittel mit stimulierenden Aktivitäten die Wechselhäufigkeit steigern. Die Wechselhäufigkeit ist somit ein Index für aktivitätsgesteuertes Erkundungsverhalten als Zeichen einer Habituation (M. Bourin, and M. Hascoet, "The mouse light/dark box test", Eur. J. Pharmacol. 463 (2003) 55 - 65). Die Versuchsanordnung betrachtet somit Verhaltensparameter, die geeignet sind das Maß an Aktivität zu messen und zu bewerten.
Um die aktivitätssteigernden Effekte der Isorhamnetintriglycoside 2, 3 und 4 zu testen wurden Mäuse einmalig mit verschieden hohen Dosierungen der Flavone behandelt. Zum Vergleich wurden einige Tiere entweder mit dem sedierenden Benzodiazepin Lorazepam oder mit dem aktivitätssteigernden Präparat Methamphetamin oder mit einer wirkungslosen Kontrolllösung behandelt. Nach 60 Minuten wurden die Tiere in das helle Kompartiment der "Hell-Dunkel-Box" gesetzt und über einen Zeitraum von 3 Minuten beobachtet. Als Maß der Aktivität wurde die Häufigkeit der Feldwechsel gemessen. […] Tabelle 2: Wirkung der Isorhamnetintriglycoside 2 und 3 im Vergleich zum Anxiolytikum Lorazepam. Gemessen wird die Anzahl der Feldwechsel im Vergleich zur Vehikel-Kontrolle.

[1] = tested on: Hippocampus Schnittpräparaten; assay: Long-term potentiation (LTP) in hippocampal slice preparations, POP spikes; format: cell-based, Wistar-Ratten; settings: result in words; for Langzeitpotenzierung: rat brain slice preparations, compared with buffer solution; for Reizantwort nach LTP-Stimulation: size of POP spikes after repeated LTP induction, compared with solvent
Excerpt: Um den Einfluss der Isorhamnetintriglycoside 2 und 4 auf mentale Funktionen zu testen wurde die Induktion der sogenannten Langzeitpotenzierung (LTP) verwendet. In Hirnschnitt-Präparaten von Wirbeltieren dient LTP als zelluläres Modell für Lernvorgänge, vor allem im Arbeitsgedächtnis (T. V. P. Bliss, and G. L. Collingridge, "A synaptic model of memory: Long-term potentiation in the hippocampus", Nature 361 (1993) 31 - 39). Durch wiederholte Reizung von Neuronen wird eine langandauernde Verstärkung der synaptischen Übertragung induziert, die durch eine Stabilisierung oder Aktivierung sogenannter ruhender Synapsen ("silent synapses) zu einer Neubildung von Verschaltungsmustern zustande kommt (Lernen). Die am besten untersuchte Region des Gehirns für LTP Messungen ist der Hippocampus, der für die Verarbeitung von Lernvorgängen eine zentrale Rolle spielt, allerdings findet LTP auch in anderen Hirnregionen statt (G. A. Kerchner, and R.A. Nicoll, "Silent synapses and the emergence of a postsynaptic mechanism for LTP", Nat. Rev. Neurosci. 9 (2008) 813 - 825). Bei Ratten und anderen Nagern ist die Langzeitpotenzierung insbesondere mit der Ausbildung des räumlichen Lernens assoziiert (J. R. Whitlock, A. J. Heynen, M. G. Shuler, and M. F. Bear, "Learning induced long-term potentiation in the hippocampus", Science 313 (2006) 1093 - 1097).
Die Experimente wurden an Hippocampus Schnittpräparaten von 8-12 Wochen alten weiblichen Wistar-Ratten durchgeführt. Die Hirnschnitte werden bei 35°C in einer Messkammer gehalten und mit einer Nährlösung perfundiert. Glasmikroelektroden werden im dendritischen Bereich des Stratum pyramidale (CA1) platziert um "Population Spikes" (POP-Spikes) zu registrieren. Die Schaffer-Kollateralen werden mit bipolaren Reizelektroden aus Platin-Draht stimuliert und die resultierenden Aktionspotentiale (POP Spikes) gemessen. Der eigentliche Versuch beginnt nach einer Äquilibrierungszeit von 60 Minuten in welcher die Hirnschnitte nicht manipuliert werden. Anschließend werden die Elektroden platziert und begonnen die Schaffer Kollateralen mit steigender Stromstärke zu stimulieren. Nach Erreichen der maximalen Reizantwort wird die Stromstärke so reduziert, dass nur noch 50% der maximal möglichen Reizstärke erreicht werden. Dadurch kann im späteren Versuch überprüft werden ob eine Verstärkung der Reizantwort möglich ist. Anschließend wird alle 10 Sekunden mit der submaximalen Reizstärke stimuliert und die POP Spikes registriert. Die erste LTP-Induktion beginnt mit einer repetitiven Reizung (100 Hz für 1 Sekunde). Der 1. Stimulation folgt die erneute Einzelstimulation (alle 10 Sekunden ein submaximaler Reiz) für zehn Minuten. Diese erste Stimulation dient der Überprüfung, ob der Hirnschnitt eine Reizantwort auf die LTP-Induktion zeigt. […]

O=C1Nc2ccc(Cl)cc2C(c2ccccc2Cl)=NC1O (centres unmarked) [Lorazepam]
Anzahl der Feldwechsel im Vergleich zur Vehikel-Kontrolle (Mäuse; 0,3 mg/kg po): -46 % der Kontrolle

CNC(C)Cc1ccccc1 (centres unmarked) [Methamphetamin]
Wechsel Anzahl (Mäuse; 0,3 mg/kg peroral): 7,5 ± 2,1
Wechsel Prozent der Kontrolle (Mäuse; 0,3 mg/kg peroral): +7%
Wechsel Anzahl (Mäuse; 1,0 mg/kg peroral): 10,6 ± 1,6
Wechsel Prozent der Kontrolle (Mäuse; 1,0 mg/kg peroral): +51%
Wechsel Anzahl (Mäuse; 3,0 mg/kg peroral): 10,9 ± 3,3
Wechsel Prozent der Kontrolle (Mäuse; 3,0 mg/kg peroral): +56%
Wechsel Anzahl (Mäuse; 10,0 mg/kg peroral): 0,6 ± 1,2
Wechsel Prozent der Kontrolle (Mäuse; 10,0 mg/kg peroral): -91%

COc1cc(-c2oc3cc(O)cc(O)c3c(=O)c2O[C@@H]2O[C@H](CO[C@@H]3O[C@@H](C)[C@H](O)[C@@H](O)[C@H]3O)[C@H](O)[C@H](O)[C@H]2O[C@@H]2OC[C@@H](O)[C@H](O)[C@H]2O)ccc1O [Verbindung 2, 3-[(O-6-Deoxy-α-L-mannopyranosyl-(1→6)-O-[ß-D-xylopyranosyl-(1→2)]-ß-D-galactopyranosyl)oxy]-5,7-dihydroxy-2-(4-hydroxy-3-methoxy-phenyl)-4H-1-benzopyran-4-on]
Langzeitpotenzierung [1]: deutlich gesteigert
Reizantwort nach LTP-Stimulation [1]: deutliche Steigerung der Reizantwort
Anzahl der Feldwechsel im Vergleich zur Vehikel-Kontrolle (Mäuse; 10 mg/kg po): +100 # % der Kontrolle
Anzahl der Feldwechsel im Vergleich zur Vehikel-Kontrolle (Mäuse; 30 mg/kg po): +38 % der Kontrolle
Erkundungsverhalten ("exploratory behavior") (Mäuse): deutlichen, dosisabhängigen und statistisch signifikantem Ansteigen des Erkundungsverhaltens
Wechselhäufigkeit in der "Hell-Dunkel-Box" (Mäuse; 30 mg/kg): geht dieser Effekt verloren
Wechselhäufigkeit in der "Hell-Dunkel-Box" (Mäuse; 3 und 10 mg/kg): deutlichen, signifikanten Steigerung der Wechselhäufigkeit

COc1cc(-c2oc3cc(O)cc(O)c3c(=O)c2O[C@@H]2O[C@H](CO[C@@H]3O[C@@H](C)[C@H](O[C@@H]4O[C@@H](C)[C@H](O)[C@@H](O)[C@H]4O)[C@@H](O)[C@H]3O)[C@@H](O)[C@H](O)[C@H]2O)ccc1O [Verbindung 3, 3-[(O-6-Deoxy-α-L-mannopyranosyl-(1→4)-O-6-deoxy-α-L-mannopyranosyl-(1→6)-ß-D-glucopyranosyl)oxy]-5,7-dihydroxy-2-(4-hydroxy-3-methoxyphenyl)-4H-1-benzopyran-4-on]
Anzahl der Feldwechsel im Vergleich zur Vehikel-Kontrolle (Mäuse; 3 mg/kg po): +15 % der Kontrolle
Erkundungsverhalten ("exploratory behavior") (Mäuse): deutlichen, dosisabhängigen und statistisch signifikantem Ansteigen des Erkundungsverhaltens

COc1cc(-c2oc3cc(O)cc(O)c3c(=O)c2O[C@@H]2O[C@H](CO[C@@H]3O[C@@H](C)[C@H](O)[C@@H](O)[C@H]3O)[C@@H](O)[C@H](O)[C@H]2O[C@@H]2OC[C@@H](O)[C@H](O)[C@H]2O)ccc1O [Verbindung 4, 3-[(O-6-Deoxy-α-L-mannopyranosyl-(1→6)-O-[ß-D-xylopyranosyl-(1→2)]-ß-D-glucopyranosyl)oxy]-5,7-dihydroxy-2-(4-hydroxy-3-methoxyphenyl)-4H-1-benzopyran-4-on]
Langzeitpotenzierung [1]: deutlich gesteigert
Reizantwort nach LTP-Stimulation [1]: deutliche Steigerung der Reizantwort
